US8889874B2, “Imidazolone-chalcone derivatives as potential anticancer agent and process for the preparation thereof” (Council of Scientific and Industrial Research, priority 2010, dated 2014)
Like-named read-outs stand apart in the source and are kept apart here.

What was measured:
Assay in all cases: NCI anticancer screen, SRB assay, 48 h
Assay type in all cases: cell-based, human
[1] = system: BT-549 (breast); details: Homo sapiens
Procedure, shortened: (§1)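 Sulforhodamine B protein assay read cell growth after 48 h of continuous compound exposure. Dose-response curves per cell line used at least five 10-fold-diluted concentrations, within a panel of fifty-three human lines from nine tumour types.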

[2] = system: COLO 205 (colon); details: Homo sapiens, COLO 205
Procedure, shortened: as §1

[3] = system: HCC-2998 (colon); details: Homo sapiens
Procedure, shortened: as §1

[4] = system: HCT-116 (colon); details: Homo sapiens
Procedure, shortened: as §1

[5] = system: HCT-15 (colon); details: Homo sapiens
Procedure, shortened: as §1

[6] = system: HOP-62 (non-small cell lung); details: Homo sapiens
Procedure, shortened: as §1

[7] = system: HT29 (colon); details: Homo sapiens
Procedure, shortened: as §1

[8] = system: LOX IMVI (melanoma); details: Homo sapiens
Procedure, shortened: as §1

[9] = system: M14 (melanoma); details: Homo sapiens
Procedure, shortened: as §1

[10] = system: MCF7 (breast); details: Homo sapiens
Procedure, shortened: as §1

[11] = system: MDA-MB-231/ATCC (breast); details: Homo sapiens
Procedure, shortened: as §1

[12] = system: MDA-MB-435 (melanoma); details: Homo sapiens
Procedure, shortened: as §1

[13] = system: NCI-H322M (non-small cell lung); details: Homo sapiens
Procedure, shortened: as §1

[14] = system: NCI-H522 (non-small cell lung); details: Homo sapiens
Procedure, shortened: as §1

[15] = system: NCI/ADR-RES (ovarian); details: Homo sapiens, NCI/ADR-RES
Procedure, shortened: as §1

[16] = system: OVCAR-3 (ovarian); details: Homo sapiens
Procedure, shortened: as §1

[17] = system: OVCAR-4 (ovarian); details: Homo sapiens
Procedure, shortened: as §1

[18] = system: OVCAR-5 (ovarian); details: Homo sapiens
Procedure, shortened: as §1

[19] = system: PC-3 (prostate); details: Homo sapiens
Procedure, shortened: as §1

[20] = system: RPMI-8226 (leukemia cell line); details: Homo sapiens
Procedure, shortened: as §1

[21] = system: RXF 393 (renal); details: Homo sapiens
Procedure, shortened: as §1

[22] = system: SF-268 (CNS); details: Homo sapiens
Procedure, shortened: as §1

[23] = system: SF-295 (CNS); details: Homo sapiens
Procedure, shortened: as §1

[24] = system: SK-MEL-2 (melanoma); details: Homo sapiens
Procedure, shortened: as §1

[25] = system: SNB-75 (CNS); details: Homo sapiens
Procedure, shortened: as §1

[26] = system: TK-10 (renal); details: Homo sapiens
Procedure, shortened: as §1

[27] = system: U251 (CNS); details: Homo sapiens
Procedure, shortened: as §1

[28] = system: UACC-62 (melanoma); details: Homo sapiens
Procedure, shortened: as §1

[29] = system: UO-31 (renal); details: Homo sapiens
Procedure, shortened: as §1

[30] = 48 h exposure, SRB, read-out: GI50
[31] = read-out: pGI50 (-log of molar concentration causing 50% inhibition of net cell growth) (converted)
[32] = COLO205, read-out: pGI50 (-log of molar concentration causing 50% inhibition of net cell growth) (converted)
[33] = HT-29, 48 h exposure, SRB, read-out: GI50
[34] = HT-29, read-out: pGI50 (-log of molar concentration causing 50% inhibition of net cell growth) (converted)
[35] = NCl/ADR-RES, 48 h exposure, SRB, read-out: GI50
[36] = PC-3, read-out: pGI50 (-log of molar concentration causing 50% inhibition of net cell growth) (converted)
[37] = one prostate cancer cell line (PC-3), exposure at least 48 hrs, read-out: GI50
[38] = RXF 393, 48 h exposure, SRB, read-out: GI50
[39] = RXF-393, read-out: pGI50 (-log of molar concentration causing 50% inhibition of net cell growth) (converted)
[40] = U-251, 48 h exposure, SRB, read-out: GI50
[41] = U-251, read-out: pGI50 (-log of molar concentration causing 50% inhibition of net cell growth) (converted)

COc1cc(/C=C/C(=O)c2cccc(-n3cc(-c4cc(OC)c(OC)c(OC)c4)[nH]c3=O)c2)cc(OC)c1OC [5d, 4-(3,4,5-trimethoxyphenyl)-1-3-[(E)-3-(3,4,5-trimethoxyphenyl)-2-propenoyl]phenyl-2,3-dihydro-1H-2-imidazolone]
GI50 [1, 30]: 1520 nM
GI50 [1, 31]: 1510 nM
GI50 [2, 32]: 1510 nM
GI50 [2, 30]: 1520 nM
GI50 [3, 30]: 1920 nM
GI50 [3, 31]: 1910 nM
GI50 [4, 30]: 740 nM
GI50 [4, 31]: 741 nM
GI50 [5, 30]: 1890 nM
GI50 [5, 31]: 1910 nM
GI50 [6, 30]: 3080 nM
GI50 [6, 31]: 3090 nM
GI50 [7, 33]: 1700 nM
GI50 [7, 34]: 1700 nM
GI50 [8, 30]: 1230 nM
GI50 [8, 31]: 1230 nM
GI50 [9, 30]: 2120 nM
GI50 [9, 31]: 2140 nM
GI50 [10, 30]: 470 nM
GI50 [10, 31]: 468 nM
GI50 [11, 30]: 4190 nM
GI50 [11, 31]: 4170 nM
GI50 [12, 30]: 2110 nM
GI50 [12, 31]: 2090 nM
GI50 [13, 30]: 3610 nM
GI50 [13, 31]: 3630 nM
GI50 [14, 30]: 1050 nM
GI50 [14, 31]: 1050 nM
GI50 [15, 35]: 2100 nM
GI50 [15, 31]: 2090 nM
GI50 [16, 30]: 1480 nM
GI50 [16, 31]: 1480 nM
GI50 [17, 30]: 3770 nM
GI50 [17, 31]: 3800 nM
GI50 [18, 30]: 4380 nM
GI50 [18, 31]: 4370 nM
GI50 [19, 36]: 2630 nM
GI50 [19, 37]: 2630 nM
GI50 [20, 30]: 230 nM
GI50 [20, 31]: 229 nM
GI50 [21, 38]: 1620 nM
GI50 [21, 39]: 1620 nM
GI50 [22, 30]: 2200 nM
GI50 [22, 31]: 2190 nM
GI50 [23, 30]: 4960 nM
GI50 [23, 31]: 5010 nM
GI50 [24, 30]: 3020 nM
GI50 [24, 31]: 3020 nM
GI50 [25, 30]: 5130 nM
GI50 [25, 31]: 5130 nM
GI50 [26, 30]: 3000 nM
GI50 [26, 31]: 3020 nM
GI50 [27, 40]: 1230 nM
GI50 [27, 41]: 1230 nM
GI50 [28, 30]: 1870 nM
GI50 [28, 31]: 1860 nM
GI50 [29, 30]: 960 nM
GI50 [29, 31]: 955 nM

COc1cc(/C=C/C(=O)c2cccc(-n3cc(-c4ccccc4)[nH]c3=O)c2)ccc1O [3a, 1-3-[(E)-3-(4-hydroxy-3-methoxyphenyl)-2-propenoyl]phenyl-4-phenyl-2,3-dihydro-1H-2-imidazolone]
GI50 [1, 30]: 2780 nM
GI50 [1, 31]: 2750 nM
GI50 [2, 32]: 2190 nM
GI50 [2, 30]: 2210 nM
GI50 [3, 30]: 1510 nM
GI50 [3, 31]: 1510 nM
GI50 [4, 30]: 1400 nM
GI50 [4, 31]: 1410 nM
GI50 [5, 30]: 2730 nM
GI50 [5, 31]: 2750 nM
GI50 [6, 30]: 1480 nM
GI50 [6, 31]: 1480 nM
GI50 [7, 33]: 3770 nM
GI50 [7, 34]: 3800 nM
GI50 [8, 30]: 1880 nM
GI50 [8, 31]: 1860 nM
GI50 [9, 30]: 2610 nM
GI50 [9, 31]: 2630 nM
GI50 [10, 30]: 1550 nM
GI50 [10, 31]: 1550 nM
GI50 [11, 30]: 3360 nM
GI50 [11, 31]: 3390 nM
GI50 [12, 30]: 2140 nM
GI50 [12, 31]: 2140 nM
GI50 [13, 30]: 3390 nM
GI50 [13, 31]: 3390 nM
GI50 [14, 30]: 2360 nM
GI50 [14, 31]: 2340 nM
GI50 [15, 35]: 2920 nM
GI50 [15, 31]: 2950 nM
GI50 [16, 30]: 2290 nM
GI50 [16, 31]: 2290 nM
GI50 [17, 30]: 5190 nM
GI50 [17, 31]: 5250 nM
GI50 [18, 30]: 2040 nM
GI50 [18, 31]: 2040 nM
GI50 [19, 36]: 2510 nM
GI50 [19, 37]: 2520 nM
GI50 [20, 30]: 1670 nM
GI50 [20, 31]: 1660 nM
GI50 [21, 38]: 2270 nM
GI50 [21, 39]: 2290 nM
GI50 [22, 30]: 2070 nM
GI50 [22, 31]: 2090 nM
GI50 [23, 30]: 3040 nM
GI50 [23, 31]: 3020 nM
GI50 [24, 30]: 3650 nM
GI50 [24, 31]: 3630 nM
GI50 [25, 30]: 3900 nM
GI50 [25, 31]: 3890 nM
GI50 [26, 30]: 5290 nM
GI50 [26, 31]: 5250 nM
GI50 [27, 40]: 2110 nM
GI50 [27, 41]: 2090 nM
GI50 [28, 30]: 2010 nM
GI50 [28, 31]: 2000 nM
GI50 [29, 30]: 2180 nM
GI50 [29, 31]: 2190 nM
